Experimental data published in DBAASP.
In brackets after ≈: the same amount, converted by molar mass. Blank lines part the entries; values can stand above or below the molecule they belong to.

Columns and labels:
Experiment in all cases: ≥ marks a high value that may be exact or a test limit, other limits are often not marked, values filed in µg/mL are converted to µM
[1] = tested on: Enterobacter cloacae
[2] = tested on: Streptococcus pneumoniae
[3] = tested on: Pseudomonas aeruginosa ATCC 15442
[4] = tested on: Acinetobacter baumannii ATCC 15308
[5] = tested on: Staphylococcus aureus
[6] = tested on: Klebsiella pneumoniae
[7] = tested on: Citrobacter sp.
[8] = tested on: Escherichia coli ATCC 25922
[9] = tested on: Staphylococcus aureus ATCC 25923
[10] = tested on: Escherichia coli
[11] = tested on: Candida albicans
[12] = tested on: Pseudomonas putida
[13] = tested on: Streptococcus mutans
[14] = tested on: Bacillus subtilis
[15] = tested on: Salmonella typhimurium
[16] = tested on: Bacillus subtilis SMY
[17] = tested on: Escherichia coli ATCC 23716
[18] = tested on: Saccharomyces cerevisiae
[19] = tested on: Serratia marcescens
[20] = tested on: Cryptococcus neoformans
[21] = tested on: Enterococcus faecalis
[22] = tested on: Streptococcus agalactiae
[23] = tested on: Morganella morganii
[24] = tested on: Acinetobacter baumannii
[25] = tested on: Escherichia coli NBRC 14237
[26] = tested on: Bacillus subtilis ATCC 6633
[27] = tested on: Stenotrophomonas maltophilia ATCC 13637
[28] = tested on: Candida albicans ATCC 90112
[29] = tested on: Staphylococcus aureus NBRC 12732
[30] = tested on: Shigella boydii
[31] = tested on: Streptococcus pyogenes
[32] = tested on: Pseudomonas aeruginosa ATCC 27853
[33] = tested on: Proteus mirabilis
[34] = tested on: Micrococcus luteus ATCC 10240
[35] = tested on: Micrococcus luteus NBRC 12708
[36] = tested on: Saccharomyces cerevisiae NBRC 10217
[37] = tested on: Bacillus cereus NCLM 2156
[38] = tested on: Vibrio cholerae PL91
[39] = tested on: Pseudomonas aeruginosa ATCC 10145
[40] = tested on: Escherichia coli NCLM 2064
[41] = tested on: Serratia marcescens ATCC 21202
[42] = tested on: Salmonella enterica subsp. enterica serovar Enteritidis ATCC 13076
[43] = tested on: Klebsiella pneumoniae ATCC 700603
[44] = tested on: Staphylococcus aureus ATCC 29213
[45] = tested on: Bacillus cereus ATCC 11778
[46] = tested on: Streptococcus pyogenes ATCC 19615

MIC [1]: ≥ 138 µM
MIC [2]: 17.2 µM (≈ 31.2 µg/mL)
MIC [3]: ≥ 34.5 µM
MIC [4]: ≥ 69 µM
MIC [5]: 17.2 µM (≈ 31.2 µg/mL)
MIC [6]: > 138 µM
MIC [7]: ≥ 138 µM
MIC [8]: 17.2 µM (≈ 31.2 µg/mL)
MIC [9]: 17.2 µM (≈ 31.2 µg/mL)
SMILES: CC[C@H](C)[C@H](NC(=O)[C@H](CC(C)C)NC(=O)CNC(=O)CNC(=O)[C@H](CC(C)C)NC(=O)[C@@H](N)Cc1ccccc1)C(=O)N[C@@H](CCCCN)C(=O)N1CCC[C@H]1C(=O)N[C@@H](Cc1c[nH]c2ccccc12)C(=O)N[C@@H](Cc1c[nH]c2ccccc12)C(=O)N1CCC[C@H]1C(=O)N[C@@H](Cc1c[nH]c2ccccc12)C(=O)N[C@@H](CCCN=C(N)N)C(=O)N[C@@H](CCCN=C(N)N)C(N)=O [FLGGLIKPWWPWRR]

MIC [10]: 21.7 µM (≈ 32 µg/mL)
MIC [11]: 21.7 µM (≈ 32 µg/mL)
MIC [12]: ≥ 43.3 µM
MIC [13]: 21.7 µM (≈ 32 µg/mL)
MIC [14]: 21.7 µM (≈ 32 µg/mL)
MIC [2]: 21.7 µM (≈ 32 µg/mL)
MIC [15]: 10.8 µM (≈ 16 µg/mL)
MIC [5]: 21.7 µM (≈ 32 µg/mL)
MIC [16]: ≥ 173 µM
MIC [17]: ≥ 173 µM
MIC [18]: ≥ 43.3 µM
MIC [19]: 21.7 µM (≈ 32 µg/mL)
MIC [20]: ≥ 43.3 µM
SMILES: CC(C)C[C@H](NC(=O)[C@H](CC(C)C)NC(=O)[C@H](CCCN=C(N)N)NC(=O)[C@H](Cc1cnc[nH]1)NC(=O)[C@@H](NC(=O)[C@H](CCCN=C(N)N)NC(=O)CNC(=O)[C@@H](NC(=O)[C@@H]1CCCN1C(=O)[C@@H](N)Cc1ccccc1)C(C)C)C(C)C)C(=O)N[C@@H](CCCN=C(N)N)C(=O)N[C@@H](CCCCN)C(=O)O [FPVGRVHRLLRK]

MIC [21]: 15 µM (≈ 29.1 µg/mL)
MIC [22]: 3.75 µM (≈ 7.27 µg/mL)
MIC [23]: 30 µM (≈ 58.2 µg/mL)
MIC [24]: 3.75 µM (≈ 7.27 µg/mL)
MIC [25]: 3.12 µM (≈ 6.05 µg/mL)
MIC [26]: 3.75 µM (≈ 7.27 µg/mL)
MIC [27]: 3.75 µM (≈ 7.27 µg/mL)
MIC [28]: 7.5 µM (≈ 14.5 µg/mL)
MIC [1]: 7.5 µM (≈ 14.5 µg/mL)
MIC [29]: 1.57 µM (≈ 3.05 µg/mL)
MIC [30]: 3.75 µM (≈ 7.27 µg/mL)
MIC [31]: 3.75 µM (≈ 7.27 µg/mL)
MIC [32]: 7.5 µM (≈ 14.5 µg/mL)
MIC [6]: 3.75 µM (≈ 7.27 µg/mL)
MIC [33]: 30 µM (≈ 58.2 µg/mL)
MIC [34]: 1.9 µM (≈ 3.69 µg/mL)
MIC [8]: 3.75 µM (≈ 7.27 µg/mL)
MIC [35]: 3.12 µM (≈ 6.05 µg/mL)
MIC [36]: 6.25 µM (≈ 12.1 µg/mL)
MIC [9]: 15 µM (≈ 29.1 µg/mL)
MIC [18]: 3.75 µM (≈ 7.27 µg/mL)
MIC [19]: 7.5 µM (≈ 14.5 µg/mL)
SMILES: CC[C@H](C)[C@H](NC(=O)[C@H](CC(C)C)NC(=O)[C@@H]1CCCN1C(=O)[C@H](CC(C)C)NC(=O)[C@H](CCCCN)NC(=O)[C@H](CCCCN)NC(=O)[C@H](CC(C)C)NC(=O)[C@H](CC(C)C)NC(=O)[C@H](C)NC(=O)[C@@H](NC(=O)[C@H](Cc1ccccc1)NC(=O)CN)C(C)C)C(=O)N[C@@H](CC(C)C)C(=O)N[C@@H](CCCCN)C(=O)N[C@@H](Cc1cnc[nH]1)C(=O)N[C@@H](CC(C)C)C(=O)N[C@@H](Cc1cnc[nH]1)C(N)=O [GFVALLKKLPLILKHLH]

MIC [37]: ≥ 51.1 µM
MIC [9]: > 51.1 µM
MIC [39]: ≥ 34.1 µM
MIC [40]: 13.6 µM (≈ 40 µg/mL)
SMILES: CC[C@H](C)[C@H](NC(=O)CN)C(=O)NCC(=O)N[C@@H](CO)C(=O)N[C@@H](CCSC)C(=O)N[C@@H](CC(C)C)C(=O)N[C@@H](CC(C)C)C(=O)NCC(=O)N[C@@H](CC(C)C)C(=O)N[C@@H](C)C(=O)N[C@@H](CCCCN)C(=O)N[C@@H](CC(N)=O)C(=O)N[C@H](C(=O)NCC(=O)N[C@@H](CCSC)C(=O)N[C@@H](CO)C(=O)N[C@@H](CC(C)C)C(=O)N[C@@H](CC(C)C)C(=O)N[C@@H](CC(N)=O)C(=O)N[C@@H](CCCCN)C(=O)N[C@@H](C)C(=O)N[C@@H](CCC(N)=O)C(=O)N[C@H]1CSSC[C@@H](C(=O)O)NC(=O)[C@H](CCCCN)NC(=O)CNC(=O)[C@H](CO)NC(=O)[C@H]([C@@H](C)CC)NC(=O)[C@H](CCCCN)NC1=O)C(C)C [GIGSMLLGLAKNVGMSLLNKAQCKISGKC]
MIC [38]: ≥ 51.1 µM

MIC [41]: ≥ 63.4 µM
MIC [42]: ≥ 63.4 µM
MIC [43]: > 63.4 µM
MIC [44]: > 63.4 µM
MIC [32]: > 63.4 µM
MIC [45]: ≥ 63.4 µM
MIC [8]: > 63.4 µM
MIC [46]: ≥ 63.4 µM
SMILES: CC(C)C[C@H](NC(=O)[C@H](CC(C)C)NC(=O)[C@H](CC(=O)O)NC(=O)[C@H](CC(N)=O)NC(=O)[C@H](CC(C)C)NC(=O)[C@H](CC(C)C)NC(=O)[C@H](CC(N)=O)NC(=O)CNC(=O)[C@@H](NC(=O)[C@H](CC(C)C)NC(=O)[C@@H]1CCCN1C(=O)[C@H](CC(C)C)NC(=O)[C@@H](N)C(C)C)C(C)C)C(=O)NCC(=O)N[C@@H](CCCCN)C(=O)O [VLPLVGNLLNDLLGK]
